Results reported in patent US12692273B2, “p53 modulators and uses thereof” (The Regents of the University of California, priority 2019, dated 2026).
Several values for one entry are separate records, joined by “and”; a condition that tells them apart may be missing. Equal entries are not always repeated. Entries after “also recorded” stand apart in the source; their conditions may differ.

Assays:
[1] = system: BxPC-3 (Y220C) cells; assay: Western blot of p21 and p53 in BxPC-3 (Y220C) cells; type: cell-based, human
From the text: (§1) This is exciting preliminary evidence of successful re-animation of p53 (Y220C) with our lead compound KG2.
We have successfully synthesized several PEG linked versions of JQ1-KG1 bivalent molecules. We also treated BxPC-3 cells with free KG1 and JQ1 compounds as additional controls. We have performed western blots on p53, p21 and actin as a control (FIG. 4C).
(§2) Western blots and antibodies. Whole-cell extracts from MCF10A (Gift from Prof. Sourav Bandyopadhyay, UCSF), BxPC-3 (ATCC, CRL-1687), Calu-1 (ATCC, HTB-54) were prepared by lysing cells with lysis buffer containing 50 mM HEPES, 150 mM NaCl, 1 mM DTT, 10% glycerol, and 1% NP-40 (pH 7.0) in the presence of 1×cOmplete EDTA-free protease inhibitor cocktail (Roche). Whole-cell extracts were combined with 2×SDS-loading buffer for western blot analysis.
(§3) Western blots were performed with 10 μg protein and were resolved by SDS-PAGE on 4-12% BT gels (Invitrogen) at 150 V for 1 hr in MES buffer and transferred to nitrocellulose membranes, which were then incubated with primary antibodies at 4° C. overnight, followed by incubation with LI-COR IRDye anti-mouse and anti-rabbit secondary antibodies at room temperature for 1 hr. Bands were imaged on a LI-COR Odyssey scanner.
(§4) Antibodies for western blot detection were as follows: p53 (DO-1, SCBT), actin (8H10D10, CST), Rb phosS807/811 (85165, CST), and p21 (SX118, SCBT).

[2] = target: T1, p53 Y220C (Homo sapiens, UniProt P04637, C124S/C182S/C229S/C275S/C277S/M133L/N239Y/N268D/Y220C); assay: Thermal stability assay (differential scanning fluorimetry) of p53 Y220C covalent adducts; type: binding; conditions: for Tm: p53 Y220C-compound adduct, p53 Y220C alone 33.0, p53 WT 41.5; for Δ Tm (thermal shift, stabilization of Y220C): relative to p53 Y220C alone
T1 construct: Human p53 WT, R273C, and Y220C (residues 94-312,; 6xHIS (TEV-cleavable) (cleaved yes); made in house; host or cells: E. coli BL21(DE3)
Description: We synthesized a series of compounds, covalently labelled recombinant p53 (Y220C) with the compound, and performed differential scanning fluorimetry (DSF) assay to determine Tm relative to Y220C alone. We tested our lead compounds with the largest increase in Tm in homozygous p53 (Y220C) cell lines BxPC-3 and HCC1419 to determined how the covalent molecules alter p53 target gene expression. p53 WT MCF10A and p53 null Calu-1 cells were used as controls. The cell panel was treated with concentrations of compound ranging 100 nM-10 μM for 4 hr, 24 hr, and 48 hr. DMSO was used as a negative control, KG2 as a positive control, and Nutlin-3a as a positive control for p53 WT (FIG. 3D). We determined the differences in p53 target gene activation by performing qPCR on CDKN1A, MDM2, PUMA, BAX, NOXA, and used GAPDH as a negative control. We also performed a western blot on p53, p21, MDM2, and actin as a control to monitor the expected increase in protein levels of p21 and MDM2 protein. […] We immunoprecipitated p53 Y220C from the compound treated cell panel with Pab240 or IgG control, and western blot for p53 to determine the relative rescue of the native fold compared to DMSO treated cells.
(§5) Recombinant protein expression. Human p53 WT, R273C, and Y220C (residues 94-312, (C124S, M133L, C182S, C229S, N239Y, N268D, C275S, C277S) were expressed as 6×HIS fusion proteins in E. coli BL21(DE3). Lysates were first purified by Ni Sepharose High Performance (GE Healthcare) affinity chromatography. Proteins were then eluted from the resin and subject to Heparin (GE Healthcare) affinity chromatography. The elution fraction was then subjected to TEV protease cleavage overnight in 50 mM HEPES, 200 mM NaCl, and 1 mM DTT (pH 7.0). The protein was then passed over Heparin affinity resin again to remove free 6×HIS and TEV protease, concentrated, and stored in a buffer containing 50 mM HEPES, 200 mM NaCl, and 20% glycerol (pH 7.0).
Thermal Stability Assays. The thermal denaturation of p53 was monitored using fluorescence-based differential scanning fluorimetry assay. Purified p53 was incubated with excess covalent ligand overnight at 4° C. and purified by gel-filtration into 50 mM HEPES, 100 mM NaCl, and 15% glycerol (pH 7.0). 5 μM protein was prepared in assay buffer 50 mM HEPES and 100 mM NaCl (pH 7.0) with 2×SYPRO Orange (ThermoFisher). The plate was heated from 15° C. to 65° C. at a rate of 0.5° C./min. The fluorescence intensity was monitored at Ex/Em: 492/610 nm.

[3] = target: T1, p53 Y220C; assay: LC-MS analysis of p53 Y220C covalent labeling; type: binding; conditions: for label and reactivate p53 Y220C: recombinant protein and patient derived cell-lines; for covalent labeling of p53 (Y220C): recombinant protein, Cys-220
Description: as §5
LC-MS analysis of p53 Y220C covalent labeling. Recombinant p53 Y220C (1 μM) in buffer containing 50 mM HEPES and 150 mM NaCl (pH 7.0) was treated with covalent compounds. The extent of covalent labeling was assessed by LC-MS (Waters Xevo G2-XS QTof, ACQUITY UPLC Protein BEH C4 Column, 300 Å, 1.7 μm, 2.1 mm×50 mm). Deconvolution of multiply charged ions was performed using Waters MassLynx software (version 4.1).

[4] = system: Calu-1 (null) cells; assay: Western blot of p21 in Calu-1 (p53 null) cells; type: cell-based, human; conditions: Calu-1, p53 null setting
Description: as §1, §2, §3, §4

SMILES	p21 induction (Western blot) ([1]; BxPC-3 (p53 Y220C) cells)	Tm ([2]; DSF)	Δ Tm (thermal shift, stabilization of Y220C) [2] [°C]	label and reactivate p53 Y220C [3]	covalent labeling of p53 (Y220C) [3]	other results
C=CC(=O)n1c2ccccc2c2cc(C(=O)NCCOCCOCCOCCOCCNC(=O)C[C@@H]3N=C(c4ccc(Cl)cc4)c4c(sc(C)c4C)-n4c(C)nnc43)ccc21 [JQ1PEG4KG1]	strongly induce p21	–	–	–	–	target p53 (Y220C) engagement (higher MW shift of p53 band) ([1]; BxPC-3 cells, Western blot): evidence of target p53 (Y220C) engagement; cell death (lower actin staining) ([1]; BxPC-3 cells, higher concentrations, 24 hours): extensive cell death
C=CC(=O)n1c2ccccc2c2cc(C=O)ccc21 [KG1]	little or no effects	35 °C and 34.5 °C	1.5	label and reactivate	reacts with p53 (Y220C); also recorded: covalently labels	–
C=C(CC)C(N)=O [2-Ethylacrylamide]	–	–	–	–	–	stabilization of Y220C (in words) ([2]; DSF, in the assay tested): did not stabilize
C=CC(=O)n1cc(C=O)c2ccccc21 [KG37]	–	34.5 °C	1.5	–	–	–
Cc1sc2c(c1C)C(c1ccc(Cl)cc1)=N[C@@H](CC(=O)OC(C)(C)C)c1nnc(C)n1-2 [JQ1, (S)-tert-butyl 2-(4-(4-chlorophenyl)-2,3,9-trimethyl-6H-thieno[3,2-f][1,2,4]triazolo[4,3-a][1,4]diazepin-6-yl)acetate, reference compound]	modest activation of p21	–	–	–	–	–
C#CCNC(=O)c1cn(C(=O)C=C)c2ccccc12 [KG2]	activation of p21 expression in Y220C cells to the same level as nutlin in WT p53 cells	–	–	label and reactivate	labels p53 (Y220C)	active concentration for p21 activation ([1]; BxPC-3 (p53 Y220C) cells): active at μM concentrations; p21 induction (Western blot) [4]: does not show induction of p21
